Results on ten molecules are retold here after PubChem BioAssay (NCI).

Among the test systems are OVCAR-4 ovarian; UACC-62 melanoma; CAKI-1 renal; SNB-75 CNS; SK-MEL-28 melanoma; UACC-257 melanoma; SK-MEL-2 melanoma; SN12C renal; UO-31 renal; K-562 leukemia.
Holding throughout (test): NCI anticancer screen, dose series, 48 h

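Following 48 hours of exposure in 96-well plates, responses at five concentrations were used to interpolate endpoints linearly. Here, GI50 denotes the concentration required for 50% inhibition of growth. The concentration for full growth arrest is given as TGI.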

Take `CN1C(c2ccccc2)CS(=O)(=O)CS1(=O)=O` (stereo not drawn): the TGI in the assay with OVCAR-4 ovarian, in the assay with UACC-62 melanoma, in the assay with CAKI-1 renal, in the assay on SNB-75 CNS, in the assay with SK-MEL-28 melanoma and in the assay with UACC-257 melanoma was over 100 µM each time. Also, the TGI in the assay on SK-MEL-2 melanoma, in the assay with SN12C renal and in the assay with UO-31 renal was over 100 µM each time.

With `Cc1ccccc1C(=O)Oc1ccc(O)cc1`, the TGI in the assay with K-562 leukemia, in the assay with OVCAR-4 ovarian, with UACC-62 melanoma, in the assay on CAKI-1 renal, in the assay on SNB-75 CNS and in the assay on UACC-257 melanoma was over 100 µM throughout. Also, the TGI in the assay on SK-MEL-2 melanoma, in the assay with SN12C renal and with UO-31 renal was over 100 µM throughout.

`CC(=O)[O-].[Mn+3].[O-]c1ccccc1C=NCCN=Cc1ccccc1[O-]`: the GI50 in the assay on K-562 leukemia is 30.3 µM; with OVCAR-4 ovarian it was over 100 µM; in the assay on UACC-62 melanoma, over 100 µM; in the assay with CAKI-1 renal it was over 100 µM; in the assay with SNB-75 CNS, over 100 µM; in the assay with SK-MEL-28 melanoma, over 100 µM. The values for the GI50 with UACC-257 melanoma, in the assay on SN12C renal and with UO-31 renal were 51.2 µM, over 100 µM and over 100 µM, respectively. Besides, the TGI with K-562 leukemia, with OVCAR-4 ovarian, with UACC-62 melanoma, in the assay on CAKI-1 renal, in the assay with SNB-75 CNS and in the assay on SK-MEL-28 melanoma was over 100 µM each time. Also, the TGI in the assay on UACC-257 melanoma, in the assay with SN12C renal and in the assay with UO-31 renal was over 100 µM each time.

`COc1ccc(/C=C2\CC(C)CC3C2=NN(C(C)=O)C3c2ccc(OC)cc2)cc1` (stereo not drawn): the GI50 in the assay with K-562 leukemia is 10.1 µM; in the assay on OVCAR-4 ovarian, 12.2 µM; in the assay with UACC-62 melanoma, 17 µM; in the assay with CAKI-1 renal it was 30.5 µM; in the assay on SNB-75 CNS, 17.7 µM; with UACC-257 melanoma, 19.8 µM. The GI50 was 30.3 µM in the assay on SK-MEL-2 melanoma, 18.4 µM in the assay on SN12C renal and 19 µM in the assay on UO-31 renal. Further, the TGI was 96.3 µM with K-562 leukemia; 36.5 µM with OVCAR-4 ovarian; 35.3 µM with UACC-62 melanoma; over 100 µM in the assay on CAKI-1 renal; 53.3 µM in the assay with SNB-75 CNS; 45 µM in the assay with UACC-257 melanoma. For the same molecule, the values for the TGI with SK-MEL-2 melanoma, in the assay with SN12C renal and with UO-31 renal were over 100 µM, 38.7 µM and 64.8 µM, respectively.

Consider `CC(C)CC(=O)Nc1n[nH]c2c1CN(C(=O)C1CCN(C)CC1)C2(C)C`, for which the GI50 in the assay on K-562 leukemia was 1.34 µM; with OVCAR-4 ovarian, 2.54 µM; in the assay on CAKI-1 renal, 4.79 µM; with SNB-75 CNS, 1.02 µM; in the assay with SK-MEL-28 melanoma, 0.626 µM; in the assay with UACC-257 melanoma, 1.19 µM. For the same molecule, the GI50 was 0.524 µM in the assay with SK-MEL-2 melanoma, 1.27 µM in the assay on SN12C renal and over 10 µM in the assay with UO-31 renal. Further, the TGI in the assay on K-562 leukemia was over 10 µM; in the assay on OVCAR-4 ovarian it was over 10 µM; in the assay on CAKI-1 renal, over 10 µM; with SNB-75 CNS, 4.14 µM; with SK-MEL-28 melanoma, over 10 µM; with UACC-257 melanoma it was over 10 µM. Also, the TGI in the assay with SK-MEL-2 melanoma was 2.8 µM; in the assay with SN12C renal, over 10 µM; in the assay on UO-31 renal, over 10 µM.

For the molecule `OC(COc1ccc(F)cc1)Cn1cnc2c(Cl)ncnc21` (stereo not drawn), the GI50 was over 100 µM in the assay with OVCAR-4 ovarian; 79 µM in the assay with UACC-62 melanoma; 19.9 µM in the assay with CAKI-1 renal; over 100 µM in the assay on SNB-75 CNS; over 100 µM in the assay with SK-MEL-28 melanoma; 46.8 µM in the assay on UACC-257 melanoma. Moreover, the GI50 in the assay with SK-MEL-2 melanoma, with SN12C renal and in the assay with UO-31 renal was over 100 µM each time. The TGI in the assay with OVCAR-4 ovarian was over 100 µM; with UACC-62 melanoma, over 100 µM; in the assay with CAKI-1 renal it was 37.6 µM; with SNB-75 CNS, over 100 µM; with SK-MEL-28 melanoma, over 100 µM; with UACC-257 melanoma it was over 100 µM. Further, the TGI in the assay with SK-MEL-2 melanoma, in the assay with SN12C renal and with UO-31 renal was over 100 µM each time.

Regarding `CN(/N=C/c1cccc2cccnc12)c1ccc([N+](=O)[O-])cc1`, the TGI in the assay on K-562 leukemia, with UACC-62 melanoma, with CAKI-1 renal, in the assay on SNB-75 CNS, in the assay on SK-MEL-28 melanoma and in the assay on UACC-257 melanoma was over 100 µM throughout. The TGI in the assay with SK-MEL-2 melanoma and in the assay on SN12C renal was over 100 µM each time.

Consider `O=C(Nc1ccccc1O)c1ccc(CNc2ccnc(C(F)(F)F)c2)cc1`, for which the GI50 is 2.39 µM in the assay with K-562 leukemia; 17.2 µM with OVCAR-4 ovarian; 1.3 µM in the assay on UACC-62 melanoma; 1.74 µM in the assay with CAKI-1 renal; 7.26 µM in the assay on SNB-75 CNS; 3.52 µM with SK-MEL-28 melanoma. For the same molecule, the GI50 was 8.4 µM in the assay with UACC-257 melanoma, 4.61 µM with SN12C renal and 2.15 µM with UO-31 renal. Further, the TGI in the assay on K-562 leukemia is over 100 µM; in the assay with OVCAR-4 ovarian, over 100 µM; in the assay on UACC-62 melanoma, 17.6 µM; in the assay with CAKI-1 renal it was 14.3 µM; with SNB-75 CNS, 48.4 µM; in the assay with SK-MEL-28 melanoma, 23.4 µM. Besides, the results for the TGI in the assay with UACC-257 melanoma, in the assay with SN12C renal and in the assay with UO-31 renal were over 100 µM, over 100 µM and 14 µM, respectively.

`CN(C)c1ncc(-c2ccc(C(F)(F)F)cc2)c(NC2CCCCCC2)n1`: the GI50 in the assay on K-562 leukemia was 14.6 µM; in the assay on OVCAR-4 ovarian, 12.9 µM; in the assay with UACC-62 melanoma, 14.7 µM; in the assay with CAKI-1 renal, 23.1 µM; with SNB-75 CNS, 20.6 µM; with SK-MEL-28 melanoma, 19.6 µM. Besides, the GI50 is 16.8 µM with UACC-257 melanoma, 17.3 µM in the assay on SN12C renal and 12.6 µM in the assay on UO-31 renal. For the same molecule, the TGI was 41.1 µM in the assay with K-562 leukemia; 56.6 µM with OVCAR-4 ovarian; 35.7 µM with UACC-62 melanoma; over 100 µM in the assay on CAKI-1 renal; 93.8 µM in the assay with SNB-75 CNS; 60.3 µM in the assay on SK-MEL-28 melanoma. Moreover, the TGI in the assay with UACC-257 melanoma came out at 54 µM; in the assay on SN12C renal, 62.2 µM; in the assay on UO-31 renal it was 35.2 µM.

Consider `CN(C)/N=C(/c1nc2ccc([N+](=O)[O-])cc2[nH]c1=O)C(O)c1ccco1` (stereo not drawn), for which the TGI with K-562 leukemia, in the assay on OVCAR-4 ovarian, in the assay on UACC-62 melanoma, with CAKI-1 renal, with SNB-75 CNS and in the assay on SK-MEL-28 melanoma was over 100 µM each time. In addition, the TGI is over 100 µM in the assay with UACC-257 melanoma, over 100 µM in the assay with SN12C renal and 90.5 µM in the assay with UO-31 renal.
